Converted amounts (≈) assume the structure as drawn. Like-named read-outs stand apart in the source and are kept apart here.
What was measured:
[1] = test system: human hepatocarcinoma (HepG2); assay: MTT cell viability assay, HepG2; format: cell-based; conditions: for IC80: 80% growth inhibition
Source text: In this study, we employed the MTT (3-(4,5-dimethyl thiazol-2-yl)-2,5-diphenyltetrazolium bromide) colorimetric assay to evaluate the cytotoxic activity of selected abietanes (compounds 5, 7, 13, 17, and 19) against three tumor cell lines: human colon adenocarcinoma (HT29), human hepatocarcinoma (HepG2), and murine melanoma (B16–F10). The MTT assay relied on the conversion of MTT to formazan by viable cells, with the formazan concentration proportional to the number of viable cells. The concentrations required for 50 and 80% growth inhibition (IC50 and IC80) were determined for each compound.
The human colorectal adenocarcinoma cell line HT29 (ECACC no. 9172201; ATCC no. HTB-38), the human hepatocarcinoma cell line HepG2 (ECACC no. 85011430), the mouse melanoma cells B16–F10 (ATCC no. CRL-6475), and the murine monocyte/macrophage like RAW 264.7 cell line (ATCC no, TIB-71) were obtained from the cell bank of the University of Granada, Spain. The tumor cell lines were cultured in DMEM (Dulbecco’s modified Eagle’s medium) supplemented with 2 mM glutamine, 10% heat-inactivated FCS (fetal calf serum), and 50 μg/mL of gentamicin (for all cancer cell lines). The RAW 264.7 cell line was cultured in RPMI1640 medium, supplemented with 2 mM glutamine, 10% heat-inactivated FCS, and 50 μg/mL of gentamicin. All cell lines were incubated at 37 °C, in an atmosphere of 5% CO2 and 95% humidity. The culture media were changed every 48 h, and the confluent cultures were separated with a trypsin solution (0.25% EDTA). In all experiments, monolayer cells were grown to 80–90% confluence in sterile cell culture flasks.
The effects of the compounds on the cell viability were established using the MTT method (Sigma, St. Louis, MO, USA). The cytotoxicity of the compounds was assessed by measuring the absorbance of MTT dye staining of metabolically competent cells. The cells were cultivated in 96-well plates at 6.0 × 10^3 cells/mL for the HT29 and RAW 264.7 cell lines, at 5.0 × 10^3 cells/mL for B16–F10 cells, and 15.0 × 10^3 cells/mL for the HepG2 cell line, with a final volume of 200 μL per well being incubated with the different products (0–100 μg/mL). After 72 h, 100 μL of MTT solution (0.5 mg/mL) in 50% of PBS and 50% of the medium was added to each well. Following incubation for 1.5 h, formazan was resuspended in 100 μL of DMSO, and each concentration was tested in triplicate. The cell viability relative to the untreated control cells was determined by measuring the absorbance at 570 nm using an ELISA plate reader (Tecan Sunrise MR20–301, TECAN, Grödig, Austria).

[2] = test system: NO release in LPS-stimulated RAW 264.7 macrophage cells; assay: Inhibition of nitric oxide production (Griess nitrite assay) in LPS-activated RAW 264.7 macrophages; format: cell-based, murine; conditions: LPS-stimulated RAW 264.7, 48 h; for NO inhibition: ¾ IC50 concentration; for IC50: Mus musculus, RAW264.7
Procedure: To evaluate the anti-inflammatory activity of the rearranged abietanes (5, 7, 17, and 19) along with their precursor 13, we conducted experiments on RAW 264.7 macrophage cells, a well-known model for screening anti-inflammatory compounds. The macrophages were stimulated with LPS to induce the maximum release of nitric oxide (NO) during the inflammatory response. Subsequently, the different compounds were incubated with the cells at sub-cytotoxic concentrations for 48 h (Figure 9). Next, we determined the concentration of nitrites in the culture medium, which was proportional to the amount of NO release.
Nitrite production was analyzed using the Griess reaction method. The concentration of nitrite was used as an indication of nitric oxide (NO) production. RAW 264.7 cells were seeded at 6 × 10^4 cells/well in 24-well cell culture plates, supplemented with 10 μg/mL of lipopolysaccharide (LPS). […] The Griess reaction was conducted by mixing 150 μL of supernatant test samples or sodium nitrite standard (0–120 μM) with 25 μL of Griess reagent A (0.1% n-(1-naphthyl) ethylenediamine dihydrochloride) and 25 μL of Griess reagent B (1% sulfanilamide in 5% of phosphoric acid) in a 96-well plate. The mixture was incubated at room temperature for 15 min, after which the absorbance was measured at 540 nm using an ELISA plate reader (Tecan Sunrise MR20–301, TECAN, Grödig, Austria). To determine the concentration of nitrite in each sample supernatant, the absorbance was referenced to the nitrite standard curve. To determine the percentage of NO production, the increase between the negative control (untreated cells) and the positive control (cells only with 10 μg/mL of LPS) was assigned 100%.

[3] = Homo sapiens, HepG2, 72 h, read-out: IC50

Structure (SMILES) | IC50 ([1]; 72 h, listed as Pygmaeocin B (5)) [µg/mL] | IC80 ([1]; Homo sapiens, 72 h) [µg/mL] | IC50 [1, 3] [µg/mL] | NO inhibition [2] [%] | IC50 [2] [µg/mL]
CC(C)C1=CC2=C(C(=O)C1=O)C1=CC(=O)CC(C)(C)[C@@]1(C)C=C2 [Compound 5, Pygmaeocin B] | 8.99 ± 1.12 (≈ 29 µM) | 11.4 ± 1.08 (≈ 36.8 µM) | 8.98 (≈ 28.9 µM) | 100 | 0.033 ± 0.0008 (≈ 0.106 µM)
CC(C)C1=CC2=C(C(=O)C1=O)[C@@]1(C)CCCC(C)(C)[C@@H]1CC2 [Compound 13] | – | 7.67 ± 0.8 (≈ 25.5 µM) | 5.58 ± 0.93 (≈ 18.6 µM) | 99.6 | 2.03 ± 0.09 (≈ 6.76 µM)
